{
  "source": "patent US7196190B2",
  "about": "“Methods and compositions for screening for angiogenesis modulating compounds” (Xenogen Corporation, priority 1999, dated 2007)",
  "tested_on": "VEGFR-2 promoter",
  "assay": "In vivo bioluminescence imaging of female VEGFR2 transgenic mouse during estrus",
  "settings": "subcutaneous 30mg/kg/day for 16 days, female VEGFR2 transgenic F1 mouse (founder KA); before treatment signal high for a maximum of 3–5 days",
  "from_the_text": "Two female VEGFR2 transgenic F1 mice from founder KA (See Example 7 above) were subjected to in vivo imaging of bioluminescence both dorsally and ventrally over a 16 day period according to the methods described in U.S. Pat. No. 5,650,135 to Contag et al. The results are presented graphically in FIGS. 18A–18D (FIGS. 18A and 18B, mouse 1 and 2 dorsal views, respectively, and FIGS. 18C and 18D, mouse 1 and 2 ventral views, respectively). […] In general, higher levels of luminescence were detectable ventrally as compared to dorsally. The signals appeared to be localized in the ovary (dorsal view) and uterus (ventral view). Both ovaries were clearly visible in most of the dorsal views. The uterus, connecting tubes and ovaries were visible in some of the ventral views.\nThe effect of the known estrogen antagonist ICI 182 780 (Tocris Cookson Ltd. Bristol, UK) on gene expression mediated by the VEGFR-2 promoter was investigated using the methods described in the preceding example.\nA mature female VEGFR2 transgenic F1 mouse from founder KA (See Example 7 above) was imaged daily for 16 days according to the methods described in U.S. Pat. No. 5,650,135 to Contag et al. The bioluminescence signal remained high for a maximum of from 3–5 days, dropping back to a basal level for the interim periods. […]",
  "data": [
    {"compound": "C[C@]12CC[C@@H]3c4ccc(O)cc4C[C@@H](CCCCCCCCC[S+]([O-])CCCC(F)(F)C(F)(F)F)[C@H]3[C@@H]1CC[C@@H]2O", "note": "(stereo partly shown) [ICI 182 780]", "values": [
      {"measurement": "time the uterine bioluminescence signal remained high before dropping back to basal level", "value": 9, "unit": "days"}
    ]}
  ]
}
